Entries after “also recorded” stand apart in the source; their conditions may differ.
Legend:
Assay type in all cases: in vivo
gonadectomized NOD mice = experiment: Serum total immunoglobulin G concentrations (single radial immunodiffusion) in gonadectomized NOD mice; details: 100 μg subcutaneously six times weekly, 8 weeks of treatment, compared to vehicle / sham operated, FIG. 1
Excerpt: (§1) The well-characterized NOD mice were used throughout the study. Male and female mice were purchased from the Jackson Laboratory (Bar Harbor, Me.). These mice are art-recognized animal models used in diabetes research. (Makino et al., (1980) Breeding of a Non-obese Diabetic Strain of Mice. Exp Anim, 29, 1-13; Miyazaki, A. T., et al, (1985) Predominance of T Lymphocytes in Pancreatic Islets and Spleen in Prediabetic Non-obese Diabetic (Nod) Mice: a Longitudinal Study. Clin Exp immunol, 60, 622-630)
(§2) Both intact and gonadectomized mice (GDX) were used. […] To compare the effects of GnRH agonists and antagonists, gonadectomized animals were randomized at 14 to 18 days of age and begun immediately in one of the following main treatment groups: GnRH agonist; Antide; vehicle. One group of gonadectomized males was treated with Nal-Glu, as an additional control. […]
(§3) Total immunoglobulin G concentrations were measured by single radial immunodiffusion assay using immunodiffusion plates containing monospecific antiserum for IgG (ICN Biomedicals, Inc., Costa Mesa, Calif.). […] Glycosuria was scored by comparison to reference standards on a scale of 0 to 4 as follows: negative=0; 30 mg/dL=1; 100 mg/dL=2; 300 mg/dL=3;>1000 mg/dL=4.
(§4) Serum immunoglobulin measurements were compared by two-tailed Student's paired t-tests. Percentages of mice remaining diabetes-free was assessed by Mantel-Haenszel methodology. […]

[1] = test system: gonadectomized male NOD mice; experiment: Incidence and onset of diabetes in gonadectomized male NOD mice; details: 100 μg subcutaneously six times weekly
Excerpt: as §1, §2, §3, §4

NOD mice = experiment: Serum prolactin by radioimmunoassay in treated NOD mice; details: NOD mice under agonist or antagonist treatment
Protocol: Both intact and gonadectomized mice (GDX) were used. […] To compare the effects of GnRH agonists and antagonists, gonadectomized animals were randomized at 14 to 18 days of age and begun immediately in one of the following main treatment groups: GnRH agonist; Antide; vehicle. One group of gonadectomized males was treated with Nal-Glu, as an additional control.
GnRH (native decapeptide) was purchased from Bachem (Bubendorf, Switzerland). GnRH antagonist Antide (Acetyl-β-[2-Naphthyl]-D-Ala-D-p-Chloro-Phe-β-[3-Pyridyl]-D-Ala-Ser-Nε-]-Lys-Nε-[Nicotinoyl]-D-Lys-Leu-Nε-[Isopropyl]-Lys-Pro-D-Ala-NH2) was supplied by Contraceptive Development Branch (NICHHD) of the National Institutes of Health and Ares-Serono (Randolph, Mass.). A second GnRH antagonist, Nal-Glu (acetyl-D2Nal1, D4ClPhe2, D3Pal3, Arg5, Dglu6(AA), DAla10) was supplied by NICHHD and was used on a subset of mice. All references to GnRH agonist refer to the native decapeptide. Animals were injected subcutaneously in the nape of the neck six times weekly, in the a.m., with 100 μg of GnRH or GnRH antagonist in 100 μl of vehicle consisting of 50% propylene glycol and 50% double distilled water. […]
Serum testosterone concentrations were measured by RIA using a commercial kit (Coat-A-Count, Diagnostic Products Corporation, Los Angeles, Calif.). Serum LH and prolactin were measured by radioimmunoassay (RIA) using previously described methods. […]

“GnRH agonist: GnRH (native decapeptide) purchased from Bachem; all references to GnRH agonist refer to the native decapeptide (QHWSYGLRPG; Gonadoliberin-1; UniProt P01148 24-33, looked up)” was tested, and the “Serum IgG concentrations” value (gonadectomized NOD mice) was “further increased IgG levels compared to vehicle; also recorded: reciprocal effects”, the “Timing of onset of diabetes” value ([1]; gonadectomized NOD mice) was “accelerated the timing of onset of diabetes; also recorded: reciprocal effects” and the Incidence of diabetes ([1]; gonadectomized male NOD mice, compared to vehicle, FIG. 2) was “significantly increased the incidence”. For the same substance, the Serum prolactin levels (NOD mice) was “neither agonist nor antagonist treatment altered serum prolactin levels”.

— patent US20020103131A1, “Prevention of diabetes by administration of GnRH antagonists” (priority 2001, published 2002)
